Marks after values point to notes of the source that are not given here.
Tests used:
P. multocida 46572 = assay: In vivo mouse lung infection challenge model (murine); set-up: species or system CD-1 female mice
Method: The challenge organism was P. multocida 46572. Target challenge concentration was 5×10^2 CFU/mouse. Isolated colonies from overnight growth (37° C. with 5% CO2) on trypticase soy agar (TSA II) blood plates were transferred to room temperature Brain Heart Infusion Broth (BHIB). The broth culture was incubated 3.5-4 hours to approximately mid-log phase of growth, as measured by forward light scatter at 600 nm (OD600, 0.200). The culture was centrifuged to collect the bacterial pellet. The pellet was re-suspended in BHIB and adjusted to provide an approximate concentration of 2.7 log^10 colony forming units (CFU) in 0.04 mL at the highest concentration. The challenge inoculum concentration was confirmed by serial dilutions of the inoculum for CFU enumeration. On Day −5, CD-1 female mice were received. Mice were given standard rodent diet and water ad libitum. On Day 0, bacterial inoculum (0.04 mL) was administered to each mouse (n=36) intranasally. Compounds of the invention were dosed at 20 mg/kg (0.1 mL) in a buffered (˜pH 5.4) propylene glycol, monothioglycerol and water solution by subcutaneous injection. Animals were observed from Days 1-10. The study was terminated on Day 10. In addition, some treatment groups were sampled at 6, 24, and 48 hours post bacterial challenge for RNA sequence analysis of lung tissue.
The murine efficacy model (P. multocida challenge) was optimized, and the treatment group size was powered to be able to observe statistically significant improvement of survival to expected ranges for immunomodulatory compounds. The experimental design was a randomized complete block design. Mice were individually identified and treatment groups comingled within a cage, with every treatment group equally represented across cages. Mortality was the primary variable. Mortality data was analyzed using a generalized mixed model with fixed effect of treatment and random effect of block. Survival time was also analyzed using the SAS PHREG (survival analysis) procedure to examine whether there were significant differences between treatment groups and the control group. Numerous compounds of the invention and M9 (positive control) were tested in this model at a dose of 20 mg/kg (Table 3). Typical percent survival for no treatment control is in the range of 0-20% based on study to study variation in challenge inoculum and rate of infection. […] Mouse survival for M9 was about 90-100%, further supporting its residual antibacterial properties against the bacterial strain. Harmonized survival accounts for % survival relative to vehicle (“−” control) and M9 (“+” control)) survival data (Table 3).

IL-6 = assay: Whole blood assay, LPS stimulation, MSD cytokine detection; assay type: cell-based; conditions: fresh whole bovine blood
[1] = tested on: BRD pathogens, M. haemolytica and P. multocida; assay: In-vitro MIC model, BRD pathogen screening panel; assay type: cell-based, Mannheimia haemolytica; Pasteurella multocida; conditions: at least one BRD strain
TNF-α = assay: Whole blood assay, LPS stimulation, MSD cytokine detection; assay type: cell-based; conditions: fresh whole bovine blood
IL-1β = assay: as above; assay type: cell-based, bovine; conditions: fresh whole bovine blood, LPS stimulation; drug concentration giving overstimulation (OS) of IL-1β
[2] = harmonized survival relative to vehicle and M9, 20 mg/kg subcutaneous, Day 10

Row | IC50 (IL-6) | IC50 (TNF-α) | SMILES | % Survival (P. multocida 46572; 46572, sc, 20 mg/kg, 240 h) | MIC flag at the example number (Table E) [1] | IL-1ß OS of LPS (IL-1β) | % Survival (P. multocida 46572; [2])
1 | – | – | CC[C@H]1OC(=O)[C@H](C)[C@@H](O)[C@H](C)[C@@H](O[C@@H]2O[C@H](C)C[C@H](N(C)C(=O)N(C)c3cc(C)n(C)n3)[C@H]2Oc2ccccc2)[C@](C)(O)C[C@@H](C)CN[C@H](C)[C@@H](O)[C@]1(C)O [Example C-26, 1-(1,5-dimethyl-1H-pyrazol-3-yl)-3-((2S,3R,4S,6R)-2-(((2R,3S,4R,5R,8R,10R,11R,12S,13S,14R)-2-ethyl-3,4,10,13-tetrahydroxy-3,5,8,10,12,14-hexamethyl-15-oxo-1-oxa-6-azacyclopentadecan-11-yl)oxy)-6-methyl-3-phenoxytetrahydro-2H-pyran-4-yl)-1,3-dimethylurea] | 8% | – | – | –
2 | 18 µM | 5 µM | CCCNC[C@]1(O)[C@H](C)O[C@@H](O[C@H]2[C@H](C)[C@@H](O[C@@H]3O[C@H](C)C[C@H](N(C)C)[C@H]3Oc3cccc(OC)c3)[C@](C)(O)C[C@@H](C)CN[C@H](C)[C@@H](O)[C@](C)(O)[C@@H](CC)OC(=O)[C@@H]2C)C[C@@]1(C)OC [Example E-73] | – | E-73* (MIC ≤ 64 μg/mL for at least one BRD strain) | 16 µM | –
3 | – | – | CC[C@H]1OC(=O)[C@H](C)[C@@H](O)[C@H](C)[C@@H](O[C@@H]2O[C@H](C)C[C@H](N(C)C(=O)N(C)c3ccccc3)[C@H]2Oc2ccccc2)[C@](C)(O)C[C@@H](C)CN(C)[C@H](C)[C@@H](O)[C@]1(C)O [Example C-12, 1-((2S,3R,4S,6R)-2-(((2R,3S,4R,5R,8R,10R,11R,12S,13S,14R)-2-ethyl-3,4,10,13-tetrahydroxy-3,5,6,8,10,12,14-heptamethyl-15-oxo-1-oxa-6-azacyclopentadecan-11-yl)oxy)-6-methyl-3-phenoxytetrahydro-2H-pyran-4-yl)-1,3-dimethyl-3-phenylurea] | 12% | – | – | –
4 | – | – | CC[C@H]1OC(=O)[C@H](C)[C@@H](O)[C@H](C)[C@@H](O[C@@H]2O[C@H](C)C[C@H](N(C)C(=O)N(C)c3cc(C)n(C)n3)[C@H]2Oc2ccccc2)[C@](C)(O)C[C@@H](C)CN(C)[C@H](C)[C@@H](O)[C@]1(C)O [Example C-30, 1-(1,5-dimethyl-1H-pyrazol-3-yl)-3-((2S,3R,4S,6R)-2-(((2R,3S,4R,5R,8R,10R,11R,12S,13S,14R)-2-ethyl-3,4,10,13-tetrahydroxy-3,5,6,8,10,12,14-heptamethyl-15-oxo-1-oxa-6-azacyclopentadecan-11-yl)oxy)-6-methyl-3-phenoxytetrahydro-2H-pyran-4-yl)-1,3-dimethylurea] | 0% | – | – | –
5 | – | – | CCCNC[C@]1(O)[C@H](C)O[C@@H](O[C@H]2[C@H](C)[C@@H](O[C@@H]3O[C@H](C)C[C@H](N(C)C(=O)N(c4ccccc4)c4ccccc4)[C@H]3O)[C@](C)(O)C[C@@H](C)CN[C@H](C)[C@@H](O)[C@](C)(O)[C@@H](CC)OC(=O)[C@@H]2C)C[C@@]1(C)OC [Example H-39] | – | – | – | 44%
6 | – | – | CC[C@H]1OC(=O)[C@H](C)[C@@H](O[C@H]2C[C@@](C)(OC)[C@](O)(CN3CCOCC3)[C@H](C)O2)[C@H](C)[C@@H](O[C@@H]2O[C@H](C)C[C@H](N(C)C)[C@H]2Oc2ccccc2)[C@](C)(O)C[C@@H](C)CN[C@H](C)[C@@H](O)[C@]1(C)O [Example H-3, (2R,3S,4R,5R,8R,10R,11R,12S,13S,14R)-11-(((2S,3R,4S,6R)-4-(dimethylamino)-6-methyl-3-phenoxytetrahydro-2H-pyran-2-yl)oxy)-2-ethyl-3,4,10-trihydroxy-13-(((2R,4R,5S,6S)-5-hydroxy-4-methoxy-4,6-dimethyl-5-(morpholinomethyl)tetrahydro-2H-pyran-2-yl)oxy)-3,5,8,10,12,14-hexamethyl-1-oxa-6-azacyclopentadecan-15-one] | 8% | – | – | –
7 | – | – | CCCNC[C@]1(O)[C@H](C)O[C@@H](O[C@H]2[C@H](C)[C@@H](O[C@@H]3O[C@H](C)C[C@H](N(C)C(=O)N(C)c4ccccc4)[C@H]3O)[C@](C)(O)C[C@@H](C)CN[C@H](C)[C@@H](O)[C@](C)(O)[C@@H](CC)OC(=O)[C@@H]2C)C[C@@]1(C)OC [Example H-11] | – | – | – | 36%
8 | – | – | CCCNC[C@]1(O)[C@H](C)O[C@@H](O[C@H]2[C@H](C)[C@@H](O[C@@H]3O[C@H](C)C[C@H](N(C)C(=O)N(C)c4ccc(C(F)(F)F)cc4)[C@H]3O)[C@](C)(O)C[C@@H](C)CN[C@H](C)[C@@H](O)[C@](C)(O)[C@@H](CC)OC(=O)[C@@H]2C)C[C@@]1(C)OC [Example H-13] | – | – | – | 59%
9 | 19 µM | 5 µM | CCCNC[C@]1(O)[C@H](C)O[C@@H](O[C@H]2[C@H](C)[C@@H](O[C@@H]3O[C@H](C)C[C@H](NC)[C@H]3Oc3ccccc3C)[C@](C)(O)C[C@@H](C)CN[C@H](C)[C@@H](O)[C@](C)(O)[C@@H](CC)OC(=O)[C@@H]2C)C[C@@]1(C)OC [Example E-61] | – | E-61* (MIC ≤ 64 μg/mL for at least one BRD strain) | 16 µM | –
10 | – | – | CCCNC[C@]1(O)[C@H](C)O[C@@H](O[C@H]2[C@H](C)[C@@H](O[C@@H]3O[C@H](C)C[C@H](N(Cc4nccs4)C(=O)N(C)c4ccccc4)[C@H]3O)[C@](C)(O)C[C@@H](C)CN[C@H](C)[C@@H](O)[C@](C)(O)[C@@H](CC)OC(=O)[C@@H]2C)C[C@@]1(C)OC [Example H-64] | – | – | – | 0%
11 | – | – | CCCNC[C@]1(O)[C@H](C)O[C@@H](O[C@H]2[C@H](C)[C@@H](O[C@@H]3O[C@H](C)C[C@H](N(C)C(=O)N(C)c4cc(C)n(C)n4)[C@H]3Oc3ccccc3)[C@](C)(O)C[C@@H](C)CN[C@H](C)[C@@H](O)[C@](C)(O)[C@@H](CC)OC(=O)[C@@H]2C)C[C@@]1(C)OC [Example F-19, 1-(1,5-dimethyl-1H-pyrazol-3-yl)-3-((2S,3R,4S,6R)-2-(((2R,3S,4R,5R,8R,10R,11R,12S,13S,14R)-2-ethyl-3,4,10-trihydroxy-13-(((2R,4R,5S,6S)-5-hydroxy-4-methoxy-4,6-dimethyl-5-((propylamino)methyl)tetrahydro-2H-pyran-2-yl)oxy)-3,5,8,10,12,14-hexamethyl-15-oxo-1-oxa-6-azacyclopentadecan-11-yl)oxy)-6-methyl-3-phenoxytetrahydro-2H-pyran-4-yl)-1,3-dimethylurea] | 35% | – | – | –
12 | 8 µM | 12 µM | CCCNC[C@]1(O)[C@H](C)O[C@@H](O[C@H]2[C@H](C)[C@@H](O[C@@H]3O[C@H](C)C[C@H](NC)[C@H]3Oc3cc(F)c(F)c(F)c3)[C@](C)(O)C[C@@H](C)CN[C@H](C)[C@@H](O)[C@](C)(O)[C@@H](CC)OC(=O)[C@@H]2C)C[C@@]1(C)OC [Example E-90] | – | E-90* (MIC ≤ 64 μg/mL for at least one BRD strain) | 6 µM | –
13 | 120 µM | 11 µM | CCCNC[C@]1(O)[C@H](C)O[C@@H](O[C@H]2[C@H](C)[C@@H](O[C@@H]3O[C@H](C)C[C@H](NC)[C@H]3Oc3ccc4ccncc4c3)[C@](C)(O)C[C@@H](C)CN[C@H](C)[C@@H](O)[C@](C)(O)[C@@H](CC)OC(=O)[C@@H]2C)C[C@@]1(C)OC [Example E-56] | – | E-56* (MIC ≤ 64 μg/mL for at least one BRD strain) | 100 µM | –
